In US20240033232A1, “New use of (R)-B2-agonists in treatment of sepsis and acute respiratory distress syndrome” (priority 2021, published 2024):

Key:
[1] = test system: sepsis by high doses LPS challenge; assay: LPS sepsis, mortality of mice; type: in vivo; settings: for survival: high doses LPS challenge; for mortality: high doses LPS challenge (100% mortality without treatment)
[2] = test system: inflammatory cells, such as WBC, neutrophils and monocytes; assay: Systemic inflammatory cells in sepsis; type: in vivo
[3] = test system: macrophages from the peritoneal fluid; assay: LPS induced proliferation and polarization of macrophages from the peritoneal fluid; type: in vivo; settings: for polarized M1 macrophages or M2 macrophages: in comparison of sepsis condition
[4] = test system: INFs, IL-1B, IL-2,4,6,10,12, TNFa and MCP; assay: Cytokine storm in sepsis, production and release of cytokines
[5] = test system: inducible NO (iNO) and another ROS; assay: Inducible NO, ROS and coagulation disorder induced by LPS sepsis
[6] = test system: tissue of lung, heart or kidney; assay: Pathological examination of organs in sepsis; type: in vivo
[7] = test system: sepsis and sepsis related ARDS; assay: Overall effect on sepsis and sepsis related ARDS; settings: in vivo
NF-κB and MARK pathways = NF-κB and MARK pathways activated by LPS in sepsis
[8] = test system: bronchial hyper-responsiveness induced by LPS sepsis; assay: Lung function and bronchial hyper-responsiveness in LPS sepsis; type: in vivo; settings: for bronchial hyper-responsiveness: induced by LPS sepsis
[9] = test system: patients with acute respiratory distress Syndrome (ARDS) caused by sepsis; settings: cited from earlier work

Structure (SMILES)	survival [1]	mortality [1]	increase of inflammatory cells (WBC, neutrophils, monocytes) [2]	polarized M1 macrophages or M2 macrophages [3]	production and release of cytokines [4]	coagulating system disorder such as disseminated intravascular coagulation (DIC) [5]	over production of inducible NO (iNO) and another ROS [5]	pathological changes (inflammatory infiltration, edema, lesions, apoptosis) in lung, heart or kidney [6]	effect on sepsis and sepsis related ARDS [7]	NF-κB and MARK pathways (expression or phosphorylation) (NF-κB and MARK pathways)	bronchial hyper-responsiveness [8]	other results
CC(C)(C)NC[C@H](O)c1ccc(O)c(CO)c1 [(R)-salbutamol]	most of animal survived	greatly reduced	significantly inhibite	significant reduction	significantly reduced	prevent	significantly prevent and inhibit	greatly ameliorated and improved	very effective			number of macrophages from the peritoneal fluid ([3]; LPS induced): significantly reduced toward normal level
CC(C)(C)NC[C@@H](O)c1cc(O)cc(O)c1 [(S)-terbutaline]			further increased					further worsened	increase the risk of sepsis or worsen sepsis	further enhanced	further worsened	
CC(C)(C)NC[C@H](O)c1cc(O)cc(O)c1 [(R)-terbutaline]	most of animal survived	greatly reduced	significantly inhibite		significantly reduced	prevent	significantly prevent and inhibit	greatly ameliorated and improved	very effective	significantly inhibited	significantly ameliorated	arterial oxygenation ([8]; sepsis): maintain a normal arterial oxygenation; deterioration of lung function ([8]; sepsis): prevent or restored the deterioration
OCc1cc([C@H](O)CNCCCCCCOCCCCc2ccccc2)ccc1O [(S)-salmeterol]				further increased								
CC(C)(C)NCC(O)c1ccc(O)c(CO)c1 (racemic) [salbutamol]												ICU mortality and hospital mortality in comparing with placebo [9]: significantly increased; increase of mortality in comparing with placebo ([9]; salbutamol infusion): 11%
CC(C)(C)NC[C@@H](O)c1ccc(O)c(CO)c1 [(S)-salbutamol]								further worsened	increase the risk of sepsis or worsen sepsis			
